Columns and labels:
[1] = system: Mean Arterial Blood Pressure in Conscious Rats; experiment: Effect on mean arterial blood pressure in conscious rats (oral); assay type: in vivo, rat (male Sprague-Dawley); conditions: for Hypotensive effect T 1/2: time to recover to half of maximal decrease; for inhibition in vivo at 32 mg/kg / inhibition in vivo at 10 mg/kg: Rattus norvegicus, po, maximal % decrease of mean blood pressure, read-out: Hypotensive effect R max; for Hypotensive effect Dur.: time to recover to 5% of maximal decrease
Method: Male Sprague-Dawley rats, aged 9-11 weeks, were anesthetized with ether and a polyethylene cannula filled with heparin solution was inserted into the femoral artery of the rats to measure mean blood pressure. Mean blood pressure was measured with a pressure transducer and recorded on a polygraph. Two hours after operation, the drug suspended in 0.5% methyl cellulose was administered orally in a volume of 5 ml/kg. Oral hypotensive effects of each compound were expressed as the maximal decrease (R max), the half time (T 1/2) and the duration (Dur.). Briefly, R max was expressed as maximal % change compared to mean blood pressure prior to the administration of compound. T 1/2 was expressed as a time during which the hypotensive effect recovered to half of the maximal decrease. Duration was expressed as a time during which the hypotensive effect recovered to 5% of the maximal decrease.

[2] = system: Mean Arterial Blood Pressure in Anesthetized Rats; experiment: Effect on mean arterial blood pressure in anesthetized rats (intravenous); assay type: in vivo, rat (male Sprague-Dawley); conditions: for Hypotensive effect T 1/2: i.v., time to recover to half of maximal decrease
Method: Male Sprague-Dawley rats, aged 9-12 weeks, were anesthetized with urethane (1.4 g/kg i.p.). A polyethylene cannula filled with heparin solution was inserted into the femoral artery of the rats to measure mean blood pressure. Mean blood pressure was measured with a pressure transducer and recorded on a polygraph. The test compound dissolved in ethanol, polyethylene glycol and distilled water (1:1:2), were administered intraveneously in a volume of 0.25 ml/kg. Intravenous hypothypotensive effects of each compound were expressed as the maximal decrease (R max) and the half time (T 1/2). Briefly, R max was expressed as maximal % change compared to mean blood pressure prior to the administration of compound. T 1/2 was expressed as a time during which the hypotensive effect recovered to half of the maximal decrease.

[3] = Rattus norvegicus, iv, 0.32 mg/kg, maximal % decrease of mean blood pressure, read-out: Hypotensive effect R max
[4] = Rattus norvegicus, iv, 1.0 mg/kg, maximal % decrease of mean blood pressure, read-out: Hypotensive effect R max

In the case of `CCC(=CC(CNC(=O)c1cccnc1)=NO)C(CC)[N+](=O)[O-]` (single isomer, unassigned) [Example 25 A, N-(4-Ethyl-2-hydroxyimino-5-nitro-3-hepten-1-yl)-3-pyridinecarboxamide], the “Hypotensive effect T 1/2” value ([1]; 10 mg/kg) is reported as 22.5 min, the “Hypotensive effect T 1/2” value ([1]; 32 mg/kg) is reported as 56.7 min and the inhibition in vivo at 32 mg/kg ([1]; 32 mg/kg) is reported as 26%. For the same compound, the inhibition in vivo at 0.32 mg/kg [2, 3] was 24.1% and the “Hypotensive effect T 1/2” value ([2]; 0.32 mg/kg) was 13.1 min.
With `CCC(=CC(CNC(=O)c1cnccc1C(N)=O)=NO)C(C)[N+](=O)[O-]` (stereo not drawn) [Example 28, 3-[N-(4-Ethyl-2-hydroxyimino-5-nitro-3-hexen-1-yl)-carbamoyl]-4-pyridinecarboxamide] the inhibition in vivo at 0.32 mg/kg [2, 3] was 22.2%, the inhibition in vivo at 1 mg/kg [2, 4] was 31.4% and the “Hypotensive effect T 1/2” value ([2]; 1.0 mg/kg) was 11.9 min.
`CC(=CC(CNC(=O)c1cccnc1)=NO)C(C)[N+](=O)[O-]` (single isomer, unassigned) [Example 19 A, N-(2-Hydroxyimino-4-methyl-5-nitro-3-hexen-1-yl)-3-pyridinecarboxamide] was tested, and the inhibition in vivo at 0.32 mg/kg [2, 3] was 40.3% and the “Hypotensive effect T 1/2” value ([2]; 0.32 mg/kg) was 12.6 min.
In the case of `CCC(C(C)=CC(CNC(=O)c1cccnc1)=NO)[N+](=O)[O-]` (single isomer, unassigned) [Example 18 A, N-(2-hydroxyimino-4-methyl-5-nitro-3-hepten-1-yl)-3-pyridinecarboxamide], the “Hypotensive effect Dur.” value ([1]; 10 mg/kg) is reported as 57.0 min, the “Hypotensive effect T 1/2” value ([1]; 10 mg/kg) is reported as 40.1 min and the “Hypotensive effect Dur.” value ([1]; 32 mg/kg) is reported as 156.4 min. For the same compound, the “Hypotensive effect T 1/2” value ([1]; 32 mg/kg) was 88.7 min, the inhibition in vivo at 10 mg/kg ([1]; 10 mg/kg) was 25.7% and the inhibition in vivo at 32 mg/kg ([1]; 32 mg/kg) was 46.9%. The inhibition in vivo at 0.32 mg/kg [2, 3] was 10.2%, the inhibition in vivo at 1 mg/kg [2, 4] was 33.6% and the “Hypotensive effect T 1/2” value ([2]; 1.0 mg/kg) was 31.5 min.
With `CCC(=CC(CNC(=O)c1cccnc1Cl)=NO)C(C)[N+](=O)[O-]` (stereo not drawn) [Example 32, N-(4-Ethyl-2-hydroxyimino-5-nitro-3-hexen-1-yl)-2-chloro-3-pyridinecarboxamide] the “Hypotensive effect Dur.” value ([1]; 10 mg/kg) was 50.9 min, the “Hypotensive effect T 1/2” value ([1]; 10 mg/kg) was 19.6 min and the inhibition in vivo at 10 mg/kg ([1]; 10 mg/kg) was 43.2%. The inhibition in vivo at 0.32 mg/kg [2, 3] was 42.5% and the “Hypotensive effect T 1/2” value ([2]; 0.32 mg/kg) was 13.6 min.
In the case of `CCC(=CC(CNC(=O)c1ccncc1)=NO)C(C)[N+](=O)[O-]` (stereo not drawn) [Example 29, N-(4-Ethyl-2-hydroxyimino-5-nitro-3-hexen-1-yl)-4-pyridinecarboxamide], the “Hypotensive effect Dur.” value ([1]; 10 mg/kg) is reported as 72.5 min, the “Hypotensive effect T 1/2” value ([1]; 10 mg/kg) is reported as 23.5 min and the “Hypotensive effect Dur.” value ([1]; 32 mg/kg) is reported as over 300 min. The “Hypotensive effect T 1/2” value ([1]; 32 mg/kg) was 165 min, the inhibition in vivo at 10 mg/kg ([1]; 10 mg/kg) was 31.4% and the inhibition in vivo at 32 mg/kg ([1]; 32 mg/kg) was 37.1%. For the same compound, the inhibition in vivo at 0.32 mg/kg [2, 3] was 35% and the “Hypotensive effect T 1/2” value ([2]; 0.32 mg/kg) was 12.3 min.
In the case of `CCC(=CC(CNC(=O)Cc1cccnc1)=NO)C(C)[N+](=O)[O-]` (stereo not drawn) [Example 42, N-(4-Ethyl-2-hydroxyimino-5-nitro-3-hexen-1-yl)-3-pyridylacetamide], the inhibition in vivo at 0.32 mg/kg [2, 3] is reported as 44.4% and the “Hypotensive effect T 1/2” value ([2]; 0.32 mg/kg) is reported as 14.2 min.
`CCC(C(C)=CC(CNC(=O)c1cccnc1)=NO)[N+](=O)[O-]` (single isomer, unassigned) [Example 18 B, N-(2-hydroxyimino-4-methyl-5-nitro-3-hepten-1-yl)-3-pyridinecarboxamide] was tested, and the “Hypotensive effect Dur.” value ([1]; 10 mg/kg) was 54.7 min, the “Hypotensive effect T 1/2” value ([1]; 10 mg/kg) was 26.4 min and the “Hypotensive effect Dur.” value ([1]; 32 mg/kg) was 97.2 min. The “Hypotensive effect T 1/2” value ([1]; 32 mg/kg) was 56.1 min and the “Hypotensive effect T 1/2” value ([2]; 1.0 mg/kg) was 20.2 min.
For `CC(C)C(=CC(CNC(=O)c1cccnc1)=NO)C(C)[N+](=O)[O-]` (stereo not drawn) [Example 20, N-(2-Hydroxyimino-4-isopropyl-5-nitro-3-hexen-1-yl)-3-pyridinecarboxamide], the “Hypotensive effect T 1/2” value ([1]; 10 mg/kg) was 28.5 min, the inhibition in vivo at 10 mg/kg ([1]; 10 mg/kg) was 20.1% and the inhibition in vivo at 0.32 mg/kg [2, 3] was 3.8%. The inhibition in vivo at 3.2 mg/kg ([2]; Rattus norvegicus, iv, 3.2 mg/kg, maximal % decrease of mean blood pressure, read-out: Hypotensive effect R max) was 48.4% and the “Hypotensive effect T 1/2” value ([2]; 3.2 mg/kg) was 20.1 min.
For `CCC(=CC(CNC(=O)c1nc[nH]c1C)=NO)C(C)[N+](=O)[O-]` (single isomer, unassigned) [Example 45 A, N-(4-Ethyl-2-hydroxyimino-5-nitro-3-hexen-1-yl)-5-methy-4-imidazolecarboxamide], the “Hypotensive effect Dur.” value ([1]; 10 mg/kg) was 52.3 min, the “Hypotensive effect T 1/2” value ([1]; 10 mg/kg) was 26.6 min and the inhibition in vivo at 10 mg/kg ([1]; 10 mg/kg) was 35.4%. For the same compound, the inhibition in vivo at 0.32 mg/kg [2, 3] was 31.2% and the “Hypotensive effect T 1/2” value ([2]; 0.32 mg/kg) was 11.9 min.
`CCC(=CC(CNC(=O)C(N)=O)=NO)C(C)[N+](=O)[O-]` (stereo not drawn) [Example 40] was tested, and the inhibition in vivo at 0.32 mg/kg [2, 3] was 52.3% and the “Hypotensive effect T 1/2” value ([2]; 0.32 mg/kg) was 11.3 min.
For `CCC(=CC(CNC(=O)c1sc(C)nc1C)=NO)C(C)[N+](=O)[O-]` (stereo not drawn) [Example 43, N-(4-Ethyl-2-hydroxyimino-5-nitro-3-hexen-1-yl)-2,4-dimethylthiazole-5-carboxamide], the inhibition in vivo at 0.32 mg/kg [2, 3] was 53.1%.
`CCC(=CC(CNC(=O)c1cccnc1C)=NO)C(C)[N+](=O)[O-]` (single isomer, unassigned) [Example 30 A, N-(4-Ethyl-2-hydroxyimino-5-nitro-3-hexen-1-yl)-2-methyl-3-pyridinecarboxamide] was tested, and the “Hypotensive effect Dur.” value ([1]; 10 mg/kg) was 108.0 min, the “Hypotensive effect T 1/2” value ([1]; 10 mg/kg) was 36.0 min and the “Hypotensive effect Dur.” value ([1]; 32 mg/kg) was 211.1 min. The “Hypotensive effect T 1/2” value ([1]; 32 mg/kg) was 56.2 min, the inhibition in vivo at 10 mg/kg ([1]; 10 mg/kg) was 40.6% and the inhibition in vivo at 32 mg/kg ([1]; 32 mg/kg) was 39.3%. For the same compound, the inhibition in vivo at 0.32 mg/kg [2, 3] was 37.9% and the “Hypotensive effect T 1/2” value ([2]; 0.32 mg/kg) was 16.9 min.
For `CCC(=CC(CNC(=O)c1cccnc1)=NO)C(CC)[N+](=O)[O-]` (single isomer, unassigned) [Example 25 B, N-(4-Ethyl-2-hydroxyimino-5-nitro-3-hepten-1-yl)-3-pyridinecarboxamide], the “Hypotensive effect T 1/2” value ([1]; 10 mg/kg) was 14.6 min.
`COCC(C(C)=CC(CNC(=O)c1ccncc1)=NO)[N+](=O)[O-]` (stereo not drawn) [Example 22, N-(2-Hydroxyimino-6-methoxy-4-methyl-5-nitro-3-hexen-1-yl)-4-pyridinecarboxamide] was tested, and the “Hypotensive effect T 1/2” value ([1]; 10 mg/kg) was 29.9 min, the “Hypotensive effect T 1/2” value ([1]; 32 mg/kg) was 63.2 min and the inhibition in vivo at 10 mg/kg ([1]; 10 mg/kg) was 19.2%. For the same compound, the inhibition in vivo at 32 mg/kg ([1]; 32 mg/kg) was 25.7%, the inhibition in vivo at 0.32 mg/kg [2, 3] was 17.7% and the inhibition in vivo at 1 mg/kg [2, 4] was 35.9%. For the same compound, the “Hypotensive effect T 1/2” value ([2]; 1.0 mg/kg) was 24.9 min.
In the case of `CCC(=CC(CNC(=O)C(N)=O)=NO)C(C)[N+](=O)[O-]` (stereo not drawn) [Example 40 A], the “Hypotensive effect Dur.” value ([1]; 10 mg/kg) is reported as 71.1 min, the “Hypotensive effect T 1/2” value ([1]; 10 mg/kg) is reported as 25.2 min and the inhibition in vivo at 10 mg/kg ([1]; 10 mg/kg) is reported as 47.8%.
`CC(=CC(CNC(=O)c1cccnc1)=NO)C(C)[N+](=O)[O-]` (single isomer, unassigned) [Example 19 B, N-(2-Hydroxyimino-4-methyl-5-nitro-3-hexen-1-yl)-3-pyridinecarboxamide] was tested, and the “Hypotensive effect T 1/2” value ([2]; 0.32 mg/kg) was 11.0 min.
